For ten compounds, IC50 results are on record in US20050209278A1, “Piperidinyl- and piperazinyl-sulfonylmethyl hydroxamic acids and their use as protease inhibitors” (priority 2002, published 2005).

This experiment addresses T1, MMP-2 (Homo sapiens, UniProt P08253).
T1 construct: made in house; host or cells: MMP-2-transfected p2AHT2 cells
T1 sequence (P08253 110-660): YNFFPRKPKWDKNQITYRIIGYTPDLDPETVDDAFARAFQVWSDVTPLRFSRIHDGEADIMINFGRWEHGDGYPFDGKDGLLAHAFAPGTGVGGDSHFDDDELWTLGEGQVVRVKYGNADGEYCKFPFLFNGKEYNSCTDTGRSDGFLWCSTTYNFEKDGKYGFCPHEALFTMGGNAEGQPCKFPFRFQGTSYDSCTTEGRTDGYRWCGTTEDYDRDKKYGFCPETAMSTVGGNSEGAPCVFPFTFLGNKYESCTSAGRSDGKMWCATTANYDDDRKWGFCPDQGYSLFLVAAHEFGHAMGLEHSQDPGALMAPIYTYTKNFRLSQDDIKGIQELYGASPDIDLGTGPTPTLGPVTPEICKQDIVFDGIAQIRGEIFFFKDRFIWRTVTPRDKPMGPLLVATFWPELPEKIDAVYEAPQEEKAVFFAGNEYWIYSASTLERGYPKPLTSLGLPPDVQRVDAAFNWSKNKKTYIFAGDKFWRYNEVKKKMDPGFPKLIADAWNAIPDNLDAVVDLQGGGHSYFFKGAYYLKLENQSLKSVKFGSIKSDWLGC
In words: In vitro MMP inhibition, IC50 determination (fluorogenic substrate I). The experiment is classed as biochemical. Particulars: value in parentheses; read-out: MMP-2 (IC-50). How it is done:
Several hydroxamic acids and salts thereof were analyzed in in vitro assays to determine their ability to inhibit the MMP cleavage of peptide substrates. […] and IC50 constants were calculated from the assayed hydroxamic acid-MMP interactions.
Human recombinant MMP-1, MMP-2, MMP-9, MMP-13, and MMP-14 were used in this assay. All enzymes were prepared in Assignee's laboratories following usual laboratory procedures. Protocols for the preparation and use of these enzymes are available in the scientific literature. See, e.g., Enzyme Nomenclature (Academic Press, San Diego, Calif., 1992) (and the citations therein). See also, Freije et al., “Molecular cloning and expression of collagenase-3, a novel human matrix metalloproteinase produced by breast carcinomas,” J Biol. Chem., 269(24), 16766-16773 (1994).
The MMP-2 proenzyme was purified by gelatin Sepharose chromatography from MMP-2-transfected p2AHT2 cells provided by Dr. Gregory Goldberg of Washington University (St. Louis, Mo.).
All MMPs were activated using 4-aminophenylmercuric acetate (“APMA”, Sigma Chemical, St. Louis, Mo.) or trypsin. MMP-9 also was activated using human recombinant MMP-3 (purified in Assignee's laboratory following standard cloning and purification techniques).
Two fluorogenic, methoxycoumarin-containing polypeptide substrates were used in the MMP inhibition assays: [drawing 427] Here, “Dpa” is 3-(2,4-dinitrophenyl)-L-2,3-diaminopropionyl group, and “MCA” is 7-methoxycoumarin-4-yl acetyl. Substrate (I) was purchased from Baychem (Redwood City, Calif.), and substrate II was prepared Assignee's laboratory. Substrate I was used in the IC50 determination assays, while substrate II was used in the Ki determination assays. In the absence of MMP inhibitory activity, either substrate is cleaved at the Gly-Leu peptide bond. This cleavage separates the highly fluorogenic peptide from the 2,4-dinitrophenyl quencher, thus resulting in increase of fluorescent intensity.
The stock solutions of the assayed hydroxamic acids (or salts thereof) were prepared in 1% dimethyl sulfoxide (DMSO). These stock solutions were diluted in Buffer A (100 mM Tris-HCl, 100 mM NaCl, 10 mM CaCl2, 0.05% polyoxyethylene 23 lauryl ether, pH 7.5) to obtain solutions with different hydroxamic acid concentrations, i.e., assay solutions with different concentrations of the assayed MMP inhibitory compound. The experiment controls contained the same amount of Buffer A/DMSO as the assayed sample, but contained no hydroxamic acid (or salt thereof).
The assays from which the IC50 determinations were made were performed as follows. The MMPs were activated with either trypsin or APMA (4-aminophenylmercuric acetate, Sigma Chemical, St. Louis, Mo.). The assayed hydroxamic acid samples were incubated in Microfluor™ White Plates (Dynatech, Chantilly, Va.) and analyzed on a Perkin Elmer L550 plate reader (Norwalk, Conn.). The excitation wavelength was 328 nm, and the emission wavelength—415 nm. All samples (assayed hydroxamic acids and controls) were incubated in separate plates at room temperature in the presence of 4 μM of MMP substrate (I). As stated in the previous paragraph, samples containing varying concentrations of the same assayed hydroxamic acid were prepared. Inhibition was measured as a reduction in fluorescent intensity as a function of MMP inhibitor concentration.
The above protocols were used to determine IC50 constants and Ki values for the compounds in Examples 1-27 above. All values in Table 2 are given in nM units. The IC50 measurements are in parenthesis.
As to `CCCCOc1ccc(N2CCN(S(=O)(=O)C3(C(=O)NO)CCN(C(=O)CN)CC3)CC2)cc1` [Example 292], the IC50 was 0.2 nM.

`CCCCOc1ccc(N2CCN(S(=O)(=O)C3(C(=O)NO)CCN(Cc4cccnc4)CC3)CC2)cc1F` [Example 293]: the IC50 stood at 0.3 nM.

`CCCCOc1ccc(N2CCN(S(=O)(=O)C3(C(=O)NO)CCN(c4ccc(C)cc4)CC3)CC2)cc1` [Example 295]: the IC50 is less than 0.1 nM.

In the case of `CCCCOc1ccc(N2CCN(S(=O)(=O)C3(C(=O)NO)CCN(c4ccc(C)cc4)CC3)CC2)cc1F` [Example 296], the IC50 was less than 0.1 nM.

Regarding `COCCOc1ccc(N2CCN(S(=O)(=O)C3(C(=O)NO)CCN(C4CC4)CC3)CC2)cc1F` [Example 297], the IC50 was 0.4 nM.

For the compound `CCCCOc1ccc(N2CCN(S(=O)(=O)C3(C(=O)NO)CCN(CC4CC4)CC3)CC2)cc1` [Example 298], the IC50 turned out to be 1.1 nM.

Consider `Cc1cc(N2CCN(S(=O)(=O)C3(C(=O)NO)CCOCC3)CC2)ccc1OC(C)C` [Example 299], for which the IC50 was 12.5 nM.

In the case of `CS(=O)(=O)c1ccc(N2CCN(S(=O)(=O)C3(C(=O)NO)CCOCC3)CC2)cc1` [Example 300], the IC50 was determined as 27.3 nM.

Take `CCCCOc1ccc(N2CCN(S(=O)(=O)C3(C(=O)NO)CCN(C4CC4)CC3)CC2)cc1` [Example 301]: the IC50 was 0.2 nM.

For the compound `C#CCN1CCC(C(=O)NO)(S(=O)(=O)N2CCN(c3ccc(OCCCC)cc3)CC2)CC1` [Example 303], the IC50 was found to be 0.1 nM.
